Results as given in patent publication US20160287696A1, “PAN POLLEN IMMUNOGENS AND METHODS AND USES FOR IMMUNE RESPONSE MODULATION” (LA JOLLA INSTITUTE FOR ALLERGY AND IMMUNOLOGY, priority 2013, published 2016).
Values joined by “and” are separate entries in the source; they are usually repeats but may differ in a detail not shown here. Equal entries are not always repeated.

Assays:
[1] = system: cultured PBMCs of the allergic donors; assay: ELISPOT of IL-5 or IFNg production by cultured PBMCs of TG allergic donors in response to peptide; assay type: cell-based, human; conditions: Table 7; peptides per NTGA recognized by T cells of grass allergic donors (n=20)
Description: Table 1 indicates for each of the 397 PG+ peptides in which non-grass pollen species a matching peptide with either less than 3, less than 2 or zero mismatches are found. The number of TG grass allergic donors (n=20) with an in vitro T cell response to the TG peptide sequence is also shown.
A set of 93 proteins from Timothy grass (TG) pollen and the assembly of 822 peptides (15 mers) predicted to promiscuously bind HLA class II molecules shown in Table 9 and the immune reactivity in allergic donors have been reported in PCT application WO 2013/119863. […] Immune reactivity was determined by the production of IL-5 or IFNg from cultured PBMCs of the allergic donors in response to stimulation with a peptide and IL-5 and IFNg were measured by ELISPOT as described in Oseroff C et al, 2010.
In short, T cell immune reactivity was determined using PBMCs isolated from study participants and stored in liquid nitrogen until further use. For experimental testing, PBMCs were thawed and expanded in vitro with TG pollen extract (50 μg/mL) or the peptide pool ([…]). The TG extract and peptide pools had each been previously titrated to determine optimal stimulation concentrations.
Cytokine production by cultured PBMCs in response to antigen stimulation was measured by ELISPOT. Cells (1×10^5 cells/well) were plated and incubated with peptide (10 μg/mL), the peptide pool (5 μg/mL), or the TG extract (50 μg/mL). Phytohaemagglutinin (10 μg/mL) and medium alone were used as positive and negative controls, respectively. Samples were considered to produce a cytokine if 100 spot-forming cells (SFCs)/10^6 PBMCs were detected, with P .05 and a stimulation index of 2 or more. Criteria for individual peptides were the same except that a minimum of 20 SFCs were required for a sample to be counted as positive.
Table 3 lists the 397 PG+ peptides and indicates for each non-grass pollen species whether a matching peptide with either less than 3, less than 2 or zero mismatches could be detected. The immune reactivity of the TG peptide was assessed as the number of TG grass allergic donors (n=20) having in vitro T cell response against the TG peptide.

[2] = system: PBMCs from Phl p reactive donors; assay: Cross-reactivity: IL-5 ELISPOT of PBMCs expanded 14 days with individual peptides, response to pollen extracts; assay type: cell-based, human; conditions: for Controls, Relevant Pool: control: response to relevant pool of cells expanded with the peptide; for Amb p % Reactivity: Amb p (weed) pollen extract; for Amb p % Reactivity / Ant o % Reactivity / Bet v % Reactivity / Cyn d % Reactivity / Lol p % Reactivity / Ole e % Reactivity / Phl p % Reactivity / Pla l % Reactivity / Poa p % Reactivity / Que a % Reactivity: reactivity of extract as percentage of reactivity to the peptide, PBMCs expanded 14 days with the peptide; for Ant o % Reactivity: Ant o (grass) pollen extract; for Bet v % Reactivity: Bet v (tree) pollen extract; for Cyn d % Reactivity: Cyn d (grass) pollen extract; for Lol p % Reactivity: Lol p (grass) pollen extract; for Ole e % Reactivity: Ole e (tree) pollen extract; for Phl p % Reactivity: Phl p (grass) pollen extract; for Pla l % Reactivity: Pla l (weed) pollen extract; for Poa p % Reactivity: Poa p (grass) pollen extract; for Que a % Reactivity: Que a (tree) pollen extract; for Controls, Irrelevant Pool: control: response to irrelevant pool of cells expanded with the peptide; for % Reactivity, Fra e: reactivity of Fra e (tree) pollen extract as percentage of the reactivity to the peptide, cells expanded with the peptide for 14 days
Procedure: For each peptide, TG allergic donors were selected that reacted to the peptide after expanding PBMCs in vitro with TG extract. […] Reponses to extracts and peptide pools are expressed as the relative fraction of the response to the peptide itself, and capped at 100%.
Each peptide was used to stimulate cells and cross reactivity was tested for extracts from each pollen species. The number of mismatches (# of mm) for each peptide compared to the pollen species and the reactivity of the extracts as a percentage of the reactivity compared to the peptide are shown.
PBMCs from Phl p reactive donors were expanded with individual PG+ peptides as well as peptides derived from major allergens of Phl p for 14 days (peptides shown in Table 10). For each peptide, the mismatch to a corresponding sequence in a non-grass pollen species or a pollen species other than Phl p were determined. Cytokine IL-5 responses were measured in response to the peptide itself, Phl p extract and extracts of the other pollen species. Reponses to extracts and peptide pools were expressed as the relative fraction of the response to the peptide itself and plotted as a function of conservation of the peptide in the different extracts (FIG. 1).

Substance	# Th+ [1]	Controls, Relevant Pool [2]	Amb p % Reactivity [2] [%]	Ant o % Reactivity [2]	Bet v % Reactivity [2]	Cyn d % Reactivity [2]	Lol p % Reactivity [2]	Ole e % Reactivity [2]	Phl p % Reactivity [2]	Pla l % Reactivity [2]	Poa p % Reactivity [2]	Que a % Reactivity [2]	Controls, Irrelevant Pool [2]	% Reactivity, Fra e [2]
88 (IKLKNMLFHTARINC) [compound 88]	0													
74 (GRFKSIPSIVELDSL) [compound 74]	0													
SDAKTLVLNIKYTRP		88 and 100 and 81 and 80												
FKAAVAAAAGAPPAD		100	15	62%	22%	31%	68%	39%	2%	2%	26%	6%	23	38%
LIEKINAGFKAAVAA		83 and 90			0% and 9%	1% and 9%	39% and 77%	2% and 12%			41% and 79%	0% and 3%	14 and 20	
STWYGKPTGAGPKDN				51% and 64%	0%		64% and 40%					1% and 0%		1% and 0%
DINVGFKAAVAAAAG		53 and 100 and 95			0% and 2%					0% and 3% and 10%		2% and 0%		0% and 4% and 1%
GELELQFRRVKCKYP		88 and 53 and 92 and 100												
QYAKEIWGITANPVP		100	83	2%	73%	10%	24%	44%		15%	22%	32%	7	12%
LAKYKANWIEIMRIK		31		14%		47%	33%		6%		22%		19	14%
NGSQFFLCTAKTAWL		100 and 89			1%			4% and 5%		1% and 2%				3% and 0%
EEWEPLTKKGNVWEV		100	49	100%	3%	7%	100%	13%	100%	23%	100%	1%	32	76%
IGSFFYFPSIGMQRT		63	0	3%	2%	9%	6%	1%	0%	2%	2%	1%	1	1%
NPMTVFWSKMAQSMT		79	0	0%	0%	1%	1%	0%	0%	0%	0%	0%	1	0%
NAGFKAAVAAAAVVP		77 and 100												
AVMLTFDNAGMWNVR		100	2	9%	0%	18%	36%	3%	4%	9%	25%	0%	0	0%
NVWEVKSSKPLVGPF		100 and 68 and 94			1% and 2% and 5% and 4% and 0%									0%
NLALSIKYNKEGDSM		100	76	0%	0%	76%	76%	78%	57%	41%	100%	0%	0	0%
FPIVQRFLEGASSID				89% and 100%	5% and 0%	22% and 39%					95% and 100%	0%	100	
DIYNYMEPYVSKVDP		100	37		0%	83%	100%	82%	30%	17%	23%	0%	49	49%
NVFDEVIPTAFTVGK		100			2% and 0%	0%	96% and 100%		75% and 81%			0%	17 and 28	
DAYVATLTEALRVIA		100 and 96 and 67		95% and 90% and 58% and 68%								10% and 8% and 0%		
MRNVFDDVVPADFKV		81 and 94 and 98 and 100			2% and 3% and 1% and 0%		88% and 82% and 73% and 72% and 100%							
INVGFKAAVAAAASV		100 and 70 and 60			1% and 0%					0% and 9%		0% and 2%		
GSDEKNLALSIKYNK		87	5	58%	0%	8%	66%	10%	32%	0%	67%	0%	19	4%
